We go through 1 cell line from the supplement of paper PMC10307832.

Holding throughout (assay): relative viability (nuclei count vs DMSO), 5 days (fraction); higher = more cells survive
Compound in experiment [1]: C1/C(=C\C2=CC=CS2)/C(=O)/C(=C/C3=CC=CS3)/C1 + CC(=O)Nc1cccc(-n2c(=O)n(C3CC3)c(=O)c3c(Nc4ccc(I)cc4F)n(C)c(=O)c(C)c32)c1 [Trametinib] (partner 0.02 µM)
The essentials: (§1)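 A single step with final 0.05% Triton X-100, 1% formaldehyde and 1 ug/ml Hoechst fixed the cells and stained nuclei 5 days after treatment. Lung cancer cell lines in 1536-well plates had been treated by pin tool the day after seeding with one drug alone or a fixed anchor-drug dose plus five library-drug doses (not always all listed) in √10 steps, and nuclei were counted on 4× images. Relative viability is the ratio of nuclei in treated wells to nuclei in vehicle wells, taken as the median of duplicate plates.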

Compound in experiment [2]: C[C@]12O[C@H](C[C@]1(O)CO)n1c3ccccc3c3c4c(c5c6ccccc6n2c5c31)CNC4=O [Lestaurtinib] + CC(C)C[C@H](NC(=O)[C@H](Cc1ccccc1)NC(=O)c1cnccn1)B(O)O [Bortezomib] (partner 0.002 µM)
The essentials:
as §1

Compound in the experiment “Lestaurtinib + Dasatinib”: C[C@]12O[C@H](C[C@]1(O)CO)n1c3ccccc3c3c4c(c5c6ccccc6n2c5c31)CNC4=O [Lestaurtinib] + Cc1nc(Nc2ncc(C(=O)Nc3c(C)cccc3Cl)s2)cc(N2CCN(CCO)CC2)n1 [Dasatinib] (partner 0.075 µM)
The gist of the method: as §1

Compound in experiment [3]: C[C@]12O[C@H](C[C@]1(O)CO)n1c3ccccc3c3c4c(c5c6ccccc6n2c5c31)CNC4=O [Lestaurtinib] + C[C@@H](Oc1cc(-c2cnn(C3CCNCC3)c2)cnc1N)c1c(Cl)ccc(F)c1Cl [Crizotinib] (partner 1 µM)
The gist of the method: as §1

In the case of UMC-11, the relative viability in experiment [1] (first compound 0.2 µM) amounted to 0.69; in experiment [1] (first compound 0.6325 µM) it was 0.737; in experiment [1] (first compound 2 µM), 0.675; in experiment [1] (first compound 6.325 µM), 0.671; in experiment [1] (first compound 20 µM) it was 0.715; in experiment [2] (first compound 0.005 µM), 0.602. For the same cell line, the relative viability is 0.621 in experiment [2] (first compound 0.01581 µM); 0.321 in experiment [2] (first compound 0.05 µM); 0.299 in experiment [2] (first compound 0.1581 µM); 0.171 in experiment [2] (first compound 0.5 µM); 0.543 with Lestaurtinib + Dasatinib (first compound 0.005 µM); 0.501 in the experiment with Lestaurtinib + Dasatinib (first compound 0.01581 µM). The relative viability with Lestaurtinib + Dasatinib (first compound 0.05 µM) was determined as 0.247; with Lestaurtinib + Dasatinib (first compound 0.1581 µM), 0.231; with Lestaurtinib + Dasatinib (first compound 0.5 µM), 0.146; in experiment [3] (first compound 0.005 µM), 0.5; in experiment [3] (first compound 0.01581 µM) it was 0.6; in experiment [3] (first compound 0.05 µM), 0.416. Also, the relative viability in experiment [3] (first compound 0.1581 µM) was determined as 0.248; in experiment [3] (first compound 0.5 µM), 0.107.
